Experimental data: patent US4409210A, “Antibiotic compound” (priority 1982, dated 1983)
Where two headings read alike, the source gives them in different places. *1 amine or outer side, *2 acyl side, *3 side chain or, on linkers, in order; H or OH if unused. Where a SMILES comes first, the peptide text is derived from it. Bridges are numbered along the chain shown (N, C = ends). [ ]: non-standard residue; d: D form. ξ: configuration not given here. X2 = CCCCCCCCCCCC(CC(=O)[*:1])O[*:2]; ξAsp(3ξ-OH) = NC(C(=O)O)C(O)C(=O)O; X1 = O=C(C1C(O)CCN1[*:1])[*:2]

How the values were obtained:
S pneumoniae A20759 = assay type: in vivo, mice; conditions: Exp. Run No. C-1176, observed 5 days
Veillonella species = assay: MIC summary, Veillonella; assay type: cell-based; conditions: gram-negative cocci
anaerobic bacteria = assay: MIC summary, anaerobic bacteria; assay type: cell-based
[1] = test system: aerobic and anaerobic gram-positive pathogens; parameters: species or system mice; conditions: mouse
[2] = assay type: in vivo, mice; conditions: acute toxicity
Method: The acute toxicity of Bu-2517 was determined by intravenous and intramuscular routes. No death occurred up to a dose of 400 mg/kg (iv) or 1600 mg/kg (im).

streptococci = assay: MIC summary, streptococci; assay type: cell-based; conditions: against streptococci
[3] = test system: aerobic gram-negative organisms; assay type: cell-based
[4] = test system: gram-positive rods and cocci (Clostridium, Peptostreptococcus, Propionibacterium acnes); assay type: cell-based; conditions: various species of Clostridium and Peptostreptococcus and strains of Propionibacterium acnes
[5] = test system: Anaerobic gram-negative rod bacteria, such as Bacteroides and Fusobacterium species; assay: MIC summary, anaerobic gram-negative rods; assay type: cell-based

CCCCCCCCCCCC1CC(=O)N2CCCC2C(=O)NC(CO)C(=O)N2CCCC2C(=O)NC(CCCNC(=N)N)C(=O)NC(C(O)C(=O)O)C(=O)NC(CO)C(=O)N2CCC(O)C2C(=O)NC(C(O)C(=O)O)C(=O)O1 (stereo not shown) [Bu-2517] (PSPR[ξAsp(3ξ-OH)]S[X1][ξAsp(3ξ-OH)]; linker N-C via X2; configuration not given here)
PD50 (mg/kg, im) (S pneumoniae A20759): 1.9 mg/kg | inhibition of two strains of Veillonella species (Veillonella species): inhibited at low concentration | antianaerobic activity, times more potent than amphomycin (anaerobic bacteria): 2-16 times | in vivo activity relative to the potency of amphomycin [1]: equal to up to three times | dose up to which no death occurred ([2]; im): 1600 mg/kg | intravenous dose at which mice died ([2]; intravenous): 800 mg/kg | dose up to which no death occurred ([2]; iv): 400 mg/kg | intravenous LD50 ([2]; mice, calculated): 560 mg/kg | fold more active than amphomycin (streptococci): 8-32 fold | activity against aerobic gram-negative organisms [3]: no activity | inhibition of anaerobic gram-positive rods and cocci tested [4]: inhibited all | susceptibility of anaerobic gram-negative rod bacteria [5]: generally resistant | pH range in which aqueous solution forms a precipitate: 2.4-4.2
